Results as given in PMC9471048, “The signaling and selectivity of α‐adrenoceptor agonists for the human α2A, α2B and α2C‐adrenoceptors and comparison with human α1 and β‐adrenoceptors” (Pharmacology Research & Perspectives, 2022).
pEC50, pIC50, pKd: −log10 of the molar value. Read-outs that look alike come from different tables or passages of the source.

Key:
α1A‐adrenoceptor = target: T1, α1A‐adrenoceptor (Homo sapiens, UniProt P35348)
T1 sequence (P35348 1-466): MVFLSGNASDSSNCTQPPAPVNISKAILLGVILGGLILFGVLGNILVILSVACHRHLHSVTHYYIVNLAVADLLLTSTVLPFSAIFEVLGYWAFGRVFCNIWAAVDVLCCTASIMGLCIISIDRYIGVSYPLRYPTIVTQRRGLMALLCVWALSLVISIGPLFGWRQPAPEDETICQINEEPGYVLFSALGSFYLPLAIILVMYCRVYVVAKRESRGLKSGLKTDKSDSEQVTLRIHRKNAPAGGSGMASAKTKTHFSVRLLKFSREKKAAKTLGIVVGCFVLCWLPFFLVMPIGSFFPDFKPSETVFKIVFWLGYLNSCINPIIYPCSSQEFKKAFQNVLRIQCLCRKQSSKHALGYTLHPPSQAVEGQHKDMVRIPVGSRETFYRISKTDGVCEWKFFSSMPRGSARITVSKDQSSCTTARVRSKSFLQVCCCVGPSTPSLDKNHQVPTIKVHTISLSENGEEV

human α2C‐adrenoceptor [1] = target: T2, human α2C‐adrenoceptor (Homo sapiens, UniProt P18825); test: 3H‐rauwolscine whole cell binding in CHO‐α2C cells; set-up: expressed in transfected cells; host or cells: CHO-K1 with CRE-SPAP reporter
T2 sequence (P18825 1-462): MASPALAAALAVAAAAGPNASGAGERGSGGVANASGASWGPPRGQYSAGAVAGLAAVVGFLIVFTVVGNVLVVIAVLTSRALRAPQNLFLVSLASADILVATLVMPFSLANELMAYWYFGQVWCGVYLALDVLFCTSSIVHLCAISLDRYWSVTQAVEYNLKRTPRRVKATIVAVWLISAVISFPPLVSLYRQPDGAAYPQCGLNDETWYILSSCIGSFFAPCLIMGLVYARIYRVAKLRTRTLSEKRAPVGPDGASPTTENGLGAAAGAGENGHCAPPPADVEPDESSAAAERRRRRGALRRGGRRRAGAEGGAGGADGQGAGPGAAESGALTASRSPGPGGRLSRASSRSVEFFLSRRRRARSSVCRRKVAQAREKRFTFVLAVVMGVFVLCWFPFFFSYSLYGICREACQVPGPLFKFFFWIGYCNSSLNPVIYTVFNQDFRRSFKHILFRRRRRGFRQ

human α2C‐adrenoceptor [2] = target: T2, human α2C‐adrenoceptor
human α2C‐adrenoceptor [3] = target: T2, human α2C‐adrenoceptor; test: ERK1/2‐phosphorylation in CHO‐α2C cells; assay type: cell-based; set-up: expressed in transfected cells; host or cells: CHO-K1 with CRE-SPAP reporter
[4] = test system: parent CHO cells (no transfected receptor); set-up: method as in PMID 34355529; conditions: non‐α‐mediated mechanism; cited from earlier work
human α2A‐adrenoceptor [5] = target: T3, human α2A‐adrenoceptor (Homo sapiens, UniProt P08913); test: 3H‐rauwolscine whole cell binding in CHO‐α2A cells; set-up: expressed in transfected cells; host or cells: CHO-K1 with CRE-SPAP reporter; conditions: for Kd: 3H‐rauwolscine whole cell binding
T3 sequence (P08913 1-465): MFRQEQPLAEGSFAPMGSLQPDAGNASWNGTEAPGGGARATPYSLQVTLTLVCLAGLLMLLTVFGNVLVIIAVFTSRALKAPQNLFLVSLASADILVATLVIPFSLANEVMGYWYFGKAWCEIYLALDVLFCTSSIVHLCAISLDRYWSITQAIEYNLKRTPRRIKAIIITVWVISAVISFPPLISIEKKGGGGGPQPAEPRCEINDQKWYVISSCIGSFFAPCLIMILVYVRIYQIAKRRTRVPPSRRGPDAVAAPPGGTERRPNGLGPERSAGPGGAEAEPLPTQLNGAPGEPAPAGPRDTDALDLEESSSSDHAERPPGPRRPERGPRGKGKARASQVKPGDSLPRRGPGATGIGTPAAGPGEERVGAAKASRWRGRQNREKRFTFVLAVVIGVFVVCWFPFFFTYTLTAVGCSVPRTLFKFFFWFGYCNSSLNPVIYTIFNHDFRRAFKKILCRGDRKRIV

human α2A‐adrenoceptor [6] = target: T3, human α2A‐adrenoceptor; test: ERK1/2‐phosphorylation in CHO‐α2A cells; assay type: cell-based; set-up: expressed in transfected cells; host or cells: CHO-K1 with CRE-SPAP reporter
human α2A‐adrenoceptor [7] = target: T3, human α2A‐adrenoceptor
human α2A‐adrenoceptor [8] = target: T3, human α2A‐adrenoceptor; remark: listed apart in the source
[9] = CHO‐α2C cells, % inhibition from the 3 μM forskolin control, mean ± SEM
[10] = CHO‐α2C cells, CRE‐SPAP production in the absence of forskolin
[11] = CHO‐α2C cells, maximum response compared to 10 μM PDBu, mean ± SEM
[12] = fold, from KD values, 1 = no selectivity
[13] = CHO‐α2A, maximum response compared to 10 μM PDBu
[14] = 3H‐rauwolscine whole cell binding, living cells, negative log KD, mean ± SEM, read-out: Log KD, CHO‐α2C (converted)
[15] = CHO‐α2C cells, 3H‐rauwolscine whole cell binding, given as negative log KD, mean only (SEM in Table 4), read-out: Log KD (converted)
[16] = Log IC50 (Gi), CRE‐SPAP (with forskolin), CHO‐α2C cells, inhibition of 3 μM forskolin‐stimulated CRE‐SPAP production, given as negative log IC50, mean ± SEM

With `CS(=O)(=O)Nc1c(O)ccc2c1CCCC2C1=NCCN1` (stereo not drawn) [A61603] the “higher α1A‐affinity than for any other α‐adrenoceptor” value (α1A‐adrenoceptor) was 1000 fold, the pIC50 (human α2C‐adrenoceptor [1]; 3H‐rauwolscine whole cell binding, no KD obtained, read-out: IC50 in binding, CHO‐α2C) was less than 4.00 and the “IC50 (log) in binding, no KD obtained” value (human α2C‐adrenoceptor [1]; CHO‐α2C cells, 3H‐rauwolscine whole cell binding, printed as log value in the Log KD column) was “IC50 > −4”. The “Log efficacy ratio (KD/IC50)” value (human α2C‐adrenoceptor [2]) was greater than 2.68, the “% inhibition, CRE‐SPAP (with forskolin)” value (human α2C‐adrenoceptor [2]; [9]) was 80.5 ± 3.0% and the “Log EC50 (Gs), CRE‐SPAP (without forskolin)” value (“Log EC50 … (without forskolin)” below) (human α2C‐adrenoceptor [2]; [10]) was “No response”. For the same molecule, the “Log IC50 (Gi), CRE‐SPAP (with forskolin)” value (human α2C‐adrenoceptor [2]; CHO‐α2C cells, inhibition of 3 μM forskolin‐stimulated CRE‐SPAP production, given as negative log IC50, mean ± SEM) was −6.68 ± 0.09, the “% 10 μM PDBu, ERK1/2‐phosphorylation” value (human α2C‐adrenoceptor [3]; [11]) was 149.2 ± 30.3% and the “Log EC50, ERK1/2‐phosphorylation” value (human α2C‐adrenoceptor [3]; CHO‐α2C cells, given as negative log EC50, mean ± SEM) was −7.26 ± 0.15.
For `CN1C[C@H](C(=O)N[C@]2(C)O[C@@]3(O)[C@@H]4CCCN4C(=O)[C@H](Cc4ccccc4)N3C2=O)C[C@@H]2c3cccc4[nH]cc(c34)C[C@H]21` [Dihydroergotamine], the “ERK1/2‐phosphorylation agonist response in parent cells” value [4] is listed as “stimulate ERK1/2‐phosphorylation agonist responses”.
For `Cc1cc(C(C)(C)C)c(O)c(C)c1CC1=NCCN1` [Oxymetazoline], the “ERK1/2‐phosphorylation agonist response in parent cells” value [4] is listed as “stimulate ERK1/2‐phosphorylation agonist responses”.
In the case of `c1ccc2c(c1)CCCC2C1=NCCN1` (stereo not drawn) [Tetrahydrozoline], the Kd (human α2A‐adrenoceptor [5]; living cells, negative log KD, mean ± SEM, read-out: Log KD, CHO‐α2A (converted)) was 324 nM, the Kd (human α2A‐adrenoceptor [5]; CHO‐α2A, given as negative log KD, read-out: Log KD (binding) (converted)) was 324 nM and the “Selectivity ratio α2A vs α2B (higher affinity for α2A)” value (human α2A‐adrenoceptor [5]; [12]) was 17.4. The “Selectivity ratio α2A vs α2C (higher affinity for α2A)” value (human α2A‐adrenoceptor [5]; [12]) was 2.6, the “% 10 μM PDBu, ERK1/2‐phosphorylation” value (human α2A‐adrenoceptor [6]; [13]) was 123.0 ± 12.8% and the EC50 (human α2A‐adrenoceptor [6]; CHO‐α2A, read-out: Log EC50, ERK1/2‐phosphorylation (converted)) was 3.63 nM. For the same molecule, the “% inhibition, CRE‐SPAP (with forskolin)” value (human α2A‐adrenoceptor [7]; CHO‐α2A (cell line 1), % inhibition from the 3 μM forskolin control, inhibition only) was 69.3 ± 7.2%, the “Log EC50 … (without forskolin)” value (human α2A‐adrenoceptor [7]; CHO‐α2A (cell line 1), absence of forskolin) was “No response” and the “Log efficacy ratio (KD/IC50)” value (human α2A‐adrenoceptor [7]; CHO‐α2A, binding KD / Gi IC50 of CRE‐SPAP) was 1.18. The pIC50 (human α2A‐adrenoceptor [7]; Log IC50 (Gi), CRE‐SPAP (with forskolin), CHO‐α2A (cell line 1, 5830 fmol/mg protein), 3 μM forskolin) was 7.67, the Kd (human α2C‐adrenoceptor [1]; [14]) was 851 nM and the Kd (human α2C‐adrenoceptor [1]; [15]) was 851 nM. The “Selectivity ratio α2B vs α2C (higher affinity for α2C)” value (from here on “Selectivity ratio α2B vs α2C”) (human α2C‐adrenoceptor [1]; [12]) was 6.6, the “% inhibition, CRE‐SPAP (with forskolin)” value (human α2C‐adrenoceptor [2]; [9]) was 60.7 ± 3.2% and the “Log EC50 … (without forskolin)” value (human α2C‐adrenoceptor [2]; [10]) was “No response”. For the same molecule, the “Log efficacy ratio (KD/IC50)” value (human α2C‐adrenoceptor [2]; CHO‐α2C cells, log KD from 3H‐rauwolscine binding versus CRE‐SPAP log IC50) was 0.40, the pIC50 (human α2C‐adrenoceptor [2]; [16]) was 6.47 and the “% 10 μM PDBu, ERK1/2‐phosphorylation” value (human α2C‐adrenoceptor [3]; [11]) was 139.6 ± 19.8%. It also gave an EC50 (human α2C‐adrenoceptor [3]; CHO‐α2C cells, given as negative log EC50, mean ± SEM, read-out: Log EC50, ERK1/2‐phosphorylation (converted)) of 126 nM.
With `Clc1ccc2nsnc2c1NC1=NCCN1` [Tizanidine] the “% 10 μM PDBu, ERK1/2‐phosphorylation” value (human α2A‐adrenoceptor [6]; [13]) was 135.7 ± 17.3%, the Kd (human α2C‐adrenoceptor [1]; [14]) was 1480 nM and the Kd (human α2C‐adrenoceptor [1]; [15]) was 1480 nM. For the same molecule, the “% inhibition, CRE‐SPAP (with forskolin)” value (human α2C‐adrenoceptor [2]; [9]) was 72.1 ± 4.4%, the “Log EC50 … (without forskolin)” value (human α2C‐adrenoceptor [2]; [10]) was “No response” and the pIC50 (human α2C‐adrenoceptor [2]; [16]) was 6.52. The “% 3 μM forskolin, CRE‐SPAP (without forskolin)” value (human α2A‐adrenoceptor [8]) was 15.8 ± 4.7% and the “% 10 μM PDBu, ERK1/2‐phosphorylation” value (human α2C‐adrenoceptor [3]; [11]) was 133.6 ± 17.9%.
With `Cc1cccc(C)c1N=C1NCCCS1` [Xylazine] the pKd (human α2A‐adrenoceptor [5]) was 4.94, the pKd (human α2A‐adrenoceptor [5]; Log KD, CHO‐α2A) was 4.94 and the “% 10 μM PDBu, ERK1/2‐phosphorylation” value (human α2A‐adrenoceptor [6]) was 128.3 ± 15.7%. For the same molecule, the pEC50 (human α2A‐adrenoceptor [6]) was 7.52, the pEC50 (human α2A‐adrenoceptor [7]) was 5.07 and the pIC50 (human α2A‐adrenoceptor [7]) was 6.54. The “Log EC50 … (without forskolin)” value (human α2A‐adrenoceptor [7]) was “No response”, the “Log efficacy ratio (KD/IC50)” value (human α2A‐adrenoceptor [7]) was 1.60 and the pKd (human α2C‐adrenoceptor [1]) was 5.22. The “Selectivity ratio α2A vs α2C (higher affinity for α2C)” value (human α2C‐adrenoceptor [1]) was 1.9, the “Selectivity ratio α2B vs α2C” value (human α2C‐adrenoceptor [1]) was 1.0 and the pKd (human α2C‐adrenoceptor [1]; Log KD, CHO‐α2C) was 5.22. For the same molecule, the “% inhibition, CRE‐SPAP (with forskolin)” value (human α2C‐adrenoceptor [2]) was 81.8 ± 3.6%, the pIC50 (human α2C‐adrenoceptor [2]) was 6.75 and the “Log EC50 … (without forskolin)” value (human α2C‐adrenoceptor [2]) was “No response”. For the same molecule, the “Log efficacy ratio (KD/IC50)” value (human α2C‐adrenoceptor [2]) was 1.53, the “% 10 μM PDBu, ERK1/2‐phosphorylation” value (human α2C‐adrenoceptor [3]) was 168.2 ± 22.8% and the pEC50 (human α2C‐adrenoceptor [3]) was 7.14.
In the case of `Cc1cc(C(C)(C)C)cc(C)c1CC1=NCCN1` [Xylometazoline], the pKd (human α2A‐adrenoceptor [5]) was 7.62, the “Selectivity ratio α2A vs α2B (higher affinity for α2A)” value (human α2A‐adrenoceptor [5]) was 151 and the “Selectivity ratio α2A vs α2C (higher affinity for α2A)” value (human α2A‐adrenoceptor [5]) was 4.5. The pKd (human α2A‐adrenoceptor [5]; Log KD, CHO‐α2A) was 7.62, the “ERK1/2‐phosphorylation agonist response in parent cells” value [4] was “stimulate ERK1/2‐phosphorylation agonist responses” and the “% inhibition, CRE‐SPAP (with forskolin)” value (human α2A‐adrenoceptor [7]) was 73.9 ± 4.6%. For the same molecule, the pIC50 (human α2A‐adrenoceptor [7]) was 8.13, the “Log EC50 … (without forskolin)” value (human α2A‐adrenoceptor [7]) was “No response” and the “Log efficacy ratio (KD/IC50)” value (human α2A‐adrenoceptor [7]) was 0.51. The pKd (human α2C‐adrenoceptor [1]) was 6.97, the “Selectivity ratio α2B vs α2C” value (human α2C‐adrenoceptor [1]) was 33.9 and the pKd (human α2C‐adrenoceptor [1]; Log KD, CHO‐α2C) was 6.97. The “% inhibition, CRE‐SPAP (with forskolin)” value (human α2C‐adrenoceptor [2]) was 57.2 ± 3.9%, the pIC50 (human α2C‐adrenoceptor [2]) was 7.20 and the “Log EC50 … (without forskolin)” value (human α2C‐adrenoceptor [2]) was “No response”. For the same molecule, the “Log efficacy ratio (KD/IC50)” value (human α2C‐adrenoceptor [2]) was 0.23.
